Experimental data published in patent US7807678B2, “Peptidomimetics of biologically active metallopeptides” (Palatin Technologies, Inc., priority 2001, dated 2010).

Tests used:
MC3-R = MC3-R (Homo sapiens, UniProt P41968); assay: Competitive inhibition binding assay, 125I-NDP-α-MSH, MC3-R; parameters: expressed in transfected cells; details: for Inhibition at 1 μM MC3-R: 1 μM compound, inhibition of 125I-NDP-α-MSH binding, mean of triplicates, results less than 0% reported as 0%
Experimental: (§1) The competitive inhibition binding assay was conducted using membranes prepared from hMC3-R, hMC4-R, hMC5-R, and B-16 mouse melanoma cells (containing MC1-R) using 0.4 nM ^125I-NDP-α-MSH (New England Nuclear, Boston, Mass., USA) in 50 mM HEPES buffer containing 1 mM MgCl2, 2 mM CaCl2, and 5 mM KCl, at pH 7.2. The assay tube also contained a chosen concentration of the test peptidomimetic of this invention, generally 1 μM, for determining its efficacy in inhibiting the binding of ^125I-NDP-α-MSH to its receptor.
(§2) Incubation was for 90 minutes at room temperature, after which the assay mixture was filtered and the membranes washed three times with ice cold buffer. The filter was dried and counted in a gamma counter for remaining radioactivity bound to the membranes. 100% specific binding was defined as the difference in radioactivity (cpm) bound to cell membranes in the absence and presence of 1 μM α-MSH. […] Each assay was conducted in triplicate and the actual mean values are described.

MC5-R = MC5-R (Homo sapiens, UniProt P33032); assay: Competitive inhibition binding assay, 125I-NDP-α-MSH, MC5-R; parameters: expressed in transfected cells; details: for Inhibition at 1 μM MC5-R: 1 μM compound, inhibition of 125I-NDP-α-MSH binding, mean of triplicates, results less than 0% reported as 0%
Experimental: as §1, §2

MC4-R = MC4-R (Homo sapiens, UniProt P32245); assay: Competitive inhibition binding assay, 125I-NDP-α-MSH, MC4-R; parameters: expressed in transfected cells; details: for Inhibition at 1 μM MC4-R: 1 μM compound, inhibition of 125I-NDP-α-MSH binding, mean of triplicates, results less than 0% reported as 0%
Experimental: as §1, §2

[1] = molecular target: T1, MC1-R (B-16 mouse melanoma cells) (Mus musculus, UniProt Q01727); assay: Competitive inhibition binding assay, 125I-NDP-α-MSH, MC1-R; details: for Inhibition at 1 μM MC1-R: 1 μM compound, inhibition of 125I-NDP-α-MSH binding, mean of triplicates, results less than 0% reported as 0%
T1 construct: B-16 mouse melanoma cells (containing MC1-R); endogenous in cells; host or cells: B-16 mouse melanoma cells
Experimental: as §1, §2

MC4-R, sequence (P32245 whole entry): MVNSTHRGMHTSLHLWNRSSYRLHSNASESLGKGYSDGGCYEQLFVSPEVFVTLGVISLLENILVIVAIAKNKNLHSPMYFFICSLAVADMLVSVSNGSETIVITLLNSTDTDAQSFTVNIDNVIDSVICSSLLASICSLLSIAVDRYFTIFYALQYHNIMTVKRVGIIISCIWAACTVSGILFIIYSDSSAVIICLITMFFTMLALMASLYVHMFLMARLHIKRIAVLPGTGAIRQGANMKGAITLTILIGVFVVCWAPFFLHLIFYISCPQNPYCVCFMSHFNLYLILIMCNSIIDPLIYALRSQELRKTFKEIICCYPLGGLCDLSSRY
MC5-R, sequence (P33032 whole entry): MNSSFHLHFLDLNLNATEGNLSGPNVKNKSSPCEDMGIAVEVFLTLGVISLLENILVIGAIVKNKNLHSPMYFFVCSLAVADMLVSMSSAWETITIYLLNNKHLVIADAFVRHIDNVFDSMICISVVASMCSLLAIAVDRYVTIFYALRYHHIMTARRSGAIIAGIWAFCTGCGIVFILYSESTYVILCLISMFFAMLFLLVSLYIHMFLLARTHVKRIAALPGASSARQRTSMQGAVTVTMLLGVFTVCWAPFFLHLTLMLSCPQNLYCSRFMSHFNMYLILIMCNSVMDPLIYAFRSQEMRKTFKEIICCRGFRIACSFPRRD
MC3-R, sequence (P41968 whole entry): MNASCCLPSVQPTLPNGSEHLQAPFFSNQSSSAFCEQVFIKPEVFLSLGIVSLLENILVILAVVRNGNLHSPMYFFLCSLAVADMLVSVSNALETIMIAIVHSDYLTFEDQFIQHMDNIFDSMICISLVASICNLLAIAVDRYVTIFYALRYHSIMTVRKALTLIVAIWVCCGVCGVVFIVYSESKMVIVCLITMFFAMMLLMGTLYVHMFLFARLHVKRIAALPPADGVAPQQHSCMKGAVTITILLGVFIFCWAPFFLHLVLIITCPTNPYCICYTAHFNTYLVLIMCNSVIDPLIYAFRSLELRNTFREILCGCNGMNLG
T1 sequence (Q01727 whole entry): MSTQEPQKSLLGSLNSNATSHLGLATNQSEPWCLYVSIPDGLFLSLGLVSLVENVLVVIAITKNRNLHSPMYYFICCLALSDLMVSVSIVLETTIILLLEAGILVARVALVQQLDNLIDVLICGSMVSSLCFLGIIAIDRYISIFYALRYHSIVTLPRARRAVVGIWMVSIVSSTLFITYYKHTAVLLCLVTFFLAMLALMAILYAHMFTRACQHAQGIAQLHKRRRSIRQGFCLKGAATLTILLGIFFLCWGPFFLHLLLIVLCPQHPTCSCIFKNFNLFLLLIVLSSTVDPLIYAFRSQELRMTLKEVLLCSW

Inhibition at 1 μM MC3-R (MC3-R) | Inhibition at 1 μM MC5-R (MC5-R) | Inhibition at 1 μM MC4-R (MC4-R) | Inhibition at 1 μM MC1-R [1] | inhibition at 1 µM (MC3-R) | inhibition at 1 µM (MC5-R) | inhibition at 1 µM (MC4-R) | inhibition at 1 µM [1] | SMILES
6% | 13% | 23% | 4% | – | – | – | – | N[C@H](Cc1ccc(Cl)cc1Cl)C(=O)N1CCN(CCc2ccc3ccccc3c2)C(=O)[C@@H]1CCCCNC(=O)c1cccnc1 [Example 60]
6% | 26% | 12% | 3% | – | – | – | – | N[C@H](Cc1ccc(Cl)cc1Cl)C(=O)N1CCN(CCc2ccc3ccccc3c2)C(=O)[C@@H]1CCCCNC(=O)c1ccc(O)cc1 [Example 61]
4% | 2% | 6% | 0% | – | – | – | – | N[C@H](Cc1ccc(Cl)cc1Cl)C(=O)N1CCN(CCc2ccc3ccccc3c2)C(=O)[C@@H]1CCCCNC(=O)CC1CCCCC1 [Example 62]
0% | 6% | 30% | 8% | – | – | – | – | N[C@H](Cc1ccc(Cl)cc1Cl)C(=O)N1CCN(CCc2ccc3ccccc3c2)C(=O)[C@@H]1CCCCNC=O [Example 64]
3% | 0% | 26% | 17% | – | – | – | – | CC(=O)NCCCC[C@H]1C(=O)N(CCc2ccc3ccccc3c2)CCN1C(=O)[C@H](N)Cc1ccc(Cl)cc1Cl [Example 65]
15% | 14% | 49% | 43% | – | – | – | – | NC(=O)NCCCC[C@H]1C(=O)N(CCc2ccc3ccccc3c2)CCN1C(=O)[C@H](N)Cc1ccc(Cl)cc1Cl [Example 66]
68% | 42% | 96% | 66% | – | – | – | – | N=C(N)NCCCC[C@H]1C(=O)N(CCc2ccc3ccccc3c2)CCN1C(=O)[C@H](N)Cc1ccc(Cl)cc1Cl [Example 67]
9% | 19% | 12% | 3% | – | – | – | – | N[C@H](Cc1ccc(Cl)cc1Cl)C(=O)N1CCN(CCc2ccc3ccccc3c2)C(=O)[C@@H]1CCCNc1ncccn1 [Example 68]
8% | 12% | 3% | 20% | – | – | – | – | N[C@H](Cc1ccc(Cl)cc1Cl)C(=O)N1CCN(CCc2ccc3ccccc3c2)C(=O)[C@@H]1CCCNc1cc[nH]n1 [Example 69]
31% | 32% | 70% | 28% | – | – | – | – | N[C@H](Cc1ccc(Cl)cc1Cl)C(=O)N1CCN(CCc2ccc3ccccc3c2)C(=O)[C@@H]1CCCNc1nncs1 [Example 70]
73% | 57% | 97% | 60% | – | – | – | – | N=C(N)NCCCC[C@H]1C(=O)N(CCc2ccc3ccccc3c2)CCN1C(=O)[C@H](N)Cc1ccc2ccccc2c1 [Example 71]
43% | 27% | 93% | 19% | – | – | – | – | CNC(=N)NCCC[C@H]1C(=O)N(CCc2ccc3ccccc3c2)CCN1C(=O)[C@H](N)Cc1ccc(Cl)cc1Cl [Example 72]
35% | 24% | 91% | 14% | – | – | – | – | CCNC(=N)NCCC[C@H]1C(=O)N(CCc2ccc3ccccc3c2)CCN1C(=O)[C@H](N)Cc1ccc(Cl)cc1Cl [Example 73]
34% | 26% | 88% | 13% | – | – | – | – | CCCNC(=N)NCCCC1C(=O)N(CCc2ccc3ccccc3c2)CCN1C(=O)C(N)Cc1ccc(Cl)cc1Cl (centres unmarked) [Example 74]
40% | 28% | 85% | 37% | – | – | – | – | CC(C)NC(=N)NCCCC1C(=O)N(CCc2ccc3ccccc3c2)CCN1C(=O)C(N)Cc1ccc(Cl)cc1Cl (centres unmarked) [Example 75]
– | – | – | – | 0% | 20% | 24% | 15% | N=C(N)NCCC[C@H]1C(=O)N(CCc2ccc3ccccc3c2)CCN1C(=O)COc1ccc(Cl)cc1Cl [Example 77]
72% | 99% | 99% | 96% | – | – | – | – | CCCCCCC(=O)N[C@@H](COCc1ccccc1)C(=O)N[C@H](Cc1ccc(Cl)cc1)C(=O)N1CCN(CCc2c[nH]c3ccccc23)C(=O)[C@@H]1CCCCN [Example 78]
14% | 86% | 81% | 90% | – | – | – | – | NCCCC[C@H]1C(=O)N2C(CC[C@@H]2COc2ccc3ccccc3c2)N1C(=O)[C@@H](Cc1ccc(Cl)cc1)NC(=O)[C@@H](N)COCc1ccccc1 (some centres unmarked) [Example 79]
0% | 38% | 60% | 28% | – | – | – | – | NCCCC[C@H]1C(=O)N2C(CC[C@@H]2COc2ccc3ccccc3c2)N1C(=O)[C@@H](Cc1ccccc1Cl)NC(=O)[C@@H](N)COCc1ccccc1 (some centres unmarked) [Example 82]
2% | 38% | 89% | 42% | – | – | – | – | NCCCC[C@H]1C(=O)N2C(CC[C@@H]2COc2ccc3ccccc3c2)N1C(=O)[C@@H](Cc1ccccc1Cl)NC(=O)[C@@H]1Cc2ccccc2CN1 (some centres unmarked) [Example 83]
0% | 37% | 74% | 44% | – | – | – | – | NCCCC[C@H]1C(=O)N2C(CC[C@@H]2COc2ccc3ccccc3c2)N1C(=O)[C@@H](Cc1ccccc1Cl)NC(=O)[C@@H]1C[C@@H](OCc2ccccc2)CN1 (some centres unmarked) [Example 84]
0% | 13% | 44% | 4% | – | – | – | – | NCCCC[C@H]1C(=O)N2C(CC[C@@H]2COc2ccc3ccccc3c2)N1C(=O)[C@@H](Cc1ccccc1Cl)NC(=O)[C@@H]1CC[C@H](c2ccccc2)N1 (some centres unmarked) [Example 85]
30% | 47% | 82% | 71% | – | – | – | – | CCCCCCC(=O)N[C@@H](COCc1ccccc1)C(=O)N[C@H](Cc1ccccc1Cl)C(=O)N1C2CC[C@H](COc3ccc4ccccc4c3)N2C(=O)[C@@H]1CCCCN (some centres unmarked) [Example 86]
8% | 46% | 57% | 66% | – | – | – | – | NCCCC[C@H]1C(=O)N2C(CC[C@@H]2COc2ccc3ccccc3c2)N1C(=O)[C@@H](Cc1ccccc1Cl)NC(=O)[C@H]1NCCc2ccccc21 (some centres unmarked) [Example 87]
0% | 20% | 37% | 48% | – | – | – | – | NCCCC[C@H]1C(=O)N2C(CC[C@@H]2COc2ccc3ccccc3c2)N1C(=O)[C@@H](Cc1ccccc1Cl)NC(=O)[C@@H]1NCCc2ccccc21 (some centres unmarked) [Example 88]
0% | 22% | 34% | 24% | – | – | – | – | NCCCC[C@H]1C(=O)N2C(CC[C@@H]2COc2ccc3ccccc3c2)N1C(=O)[C@@H](Cc1ccccc1Cl)NC(=O)C1(N)CCc2ccccc2C1 (some centres unmarked) [Example 89]
